Experimental data reported in PubChem BioAssay (NCI).
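48-hour exposure; five concentrations; linearly interpolated endpoints. The concentration for full growth arrest is given as TGI.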

Legend:
Assay in all cases: inhibition of tumour cell growth, NCI panel, 48 h
UACC-62 melanoma = system: UACC-62 melanoma
OVCAR-5 ovarian = system: OVCAR-5 ovarian
U251 CNS = system: U251 CNS
LOX IMVI melanoma = system: LOX IMVI melanoma
RPMI-8226 leukemia = system: RPMI-8226 leukemia
MDA-MB-435 = system: MDA-MB-435
OVCAR-4 ovarian = system: OVCAR-4 ovarian
HOP-92 NSCLC = system: HOP-92 NSCLC
UACC-257 melanoma = system: UACC-257 melanoma
M14 melanoma = system: M14 melanoma

Measured: TGI

CCOC(=O)NC(N(C)C(C(C)C)P(=O)(OCC)OCC)(C(F)(F)F)C(F)(F)F (stereo not given)
> 100 µM: all assays above

CC1(C)OC2CN(C(=O)OCc3ccccc3)C(CO)C2O1 (stereo not given)
> 100 µM: all assays above
